Source: ChEMBL document CHEMBL5055680, “AMPK inhibitor BML-275 induces neuroprotection through decreasing cyt c and AIF expression after transient brain ischemia” (2021)
Activity calls are given as the source filed them. No cut-off for these calls is given here.

Experiments:
Mus musculus [1] = assay: (§1) Neuroprotective activity in C57BL/6 mouse model of transient middle cerebral artery occlusion induced cerebral ischemia reperfusion injury assessed as inhibition of apoptosis by measuring decrease in TUNEL positive nuclei in cortex at 10 mg/kg, ip measured after 12 hrs by TUNEL staining based assay (reference value: 53.64 +/- 7.63); type: functional
[2] = Downregulation of cyt-c expression in cortex of C57BL/6 mouse model of transient middle cerebral artery occlusion induced cerebral ischemia reperfusion injury measured after 24 hrs of reperfusion by immunohistochemistry; type: functional
Mus musculus [3] = assay: Neuroprotective activity in C57BL/6 mouse model of transient middle cerebral artery occlusion induced cerebral ischemia reperfusion injury assessed reduction in infarct size at 10 mg/kg, ip measured after 24 hrs by TTC staining based assay; type: functional, organism-based
Mus musculus [4] = assay: Neuroprotective activity in C57BL/6 mouse model of transient middle cerebral artery occlusion induced cerebral ischemia reperfusion injury assessed as change in infract volume at 10 mg/kg, ip measured after 24 hrs by TTC staining based assay (reference value: 21.86 +/- 4.65 %); type: functional
Mus musculus [5] = assay: Neuroprotective activity in C57BL/6 mouse model of transient middle cerebral artery occlusion induced cerebral ischemia reperfusion injury assessed as neurological deficits at 10 mg/kg, ip measured 24 hrs after reperfusion by […] (reference value: 5.86 +/- 0.64); type: functional
Mus musculus [6] = species: Mus musculus; assay: Neuroprotective activity in C57BL/6 mouse model of transient middle cerebral artery occlusion induced cerebral ischemia reperfusion injury assessed as neuronal apoptosis by measuring increase in caspase-3 positive cells incubated for 1 hrs by immunohistochemistry; type: functional, organism-based
Mus musculus [7] = species: Mus musculus; assay: Neuroprotective activity in C57BL/6 mouse model of transient middle cerebral artery occlusion induced cerebral ischemia reperfusion injury assessed as neuronal apoptosis by measuring increase in TUNEL positive nuclei measured after 12 hrs by TUNEL staining based assay; type: functional, organism-based
Mus musculus [8] = assay: Neuroprotective activity in C57BL/6 mouse model of transient middle cerebral artery occlusion induced cerebral ischemia reperfusion injury assessed as inhibition of apoptosis by measuring decrease in caspase-3 positive cells in cortex at 10 mg/kg, ip incubated for 1 hrs by immunohistochemistry (reference value: 7.58 +/- 2.15); type: functional
Mus musculus [9] = assay: as §1, with “hippocampus” for “cortex”, “55.42” for “53.64”, “4.86)” for “7.63)”; type: functional
[10] = Downregulation of cyt-c expression in hippocampus of C57BL/6 mouse model of transient middle cerebral artery occlusion induced cerebral ischemia reperfusion injury measured after 24 hrs of reperfusion by immunohistochemistry; type: functional
[11] = (§2) Downregulation of cyt-c expression in cortex of C57BL/6 mouse model of transient middle cerebral artery occlusion induced cerebral ischemia reperfusion injury at 10 mg/kg, ip measured after 24 hrs of reperfusion by immunohistochemistry (reference value: 15.58 +/- 2.34); type: functional
[12] = Downregulation of cyt-c expression in hippocampus of C57BL/6 mouse model of transient middle cerebral artery occlusion induced cerebral ischemia reperfusion injury at 10 mg/kg, ip measured after 24 hrs of reperfusion by immunohistochemistry (reference value: 20.52+/- 2.08); type: functional
[13] = as §2, with “AIF” for “cyt-c”, “injury assessed as AIP-posotive cells in ischemic cortex” for “injury”, “46.7” for “15.58”, “3.45)” for “2.34)”; type: functional
[14] = as §2, with “AIF” for “cyt-c”, “injury assessed as AIP-posotive cells in hippocampus” for “injury”, “27.35” for “15.58”, “3.67)” for “2.34)”; type: functional

c1cc(-c2cnn3cc(-c4ccc(OCCN5CCCCC5)cc4)cnc23)ccn1 [DORSOMORPHIN]
Activity (Mus musculus [1]): 53.64
fold change (FC) [2]: 45.32
Activity (Mus musculus [3]): Active
Activity (Mus musculus [4]): 42.56%
Activity (Mus musculus [5]): 9.26
Activity (Mus musculus [6]): Active
Activity (Mus musculus [7]): Active
Activity (Mus musculus [8]): 15.63
Activity (Mus musculus [9]): 55.42
fold change (FC) [10]: 52.08
fold change (FC) [11]: 45.32
fold change (FC) [12]: 52.08
fold change (FC) [13]: 26.36
fold change (FC) [14]: 13.17
